Data from patent publication US12116358B2, “Substituted indoles and methods of use thereof” (EPIZYME, INC., priority 2018, dated 2024).

Molecular target: T1, SETD2(1434-1711) (Homo sapiens, UniProt Q9BYW2)
T1 construct: SETD2 (1434-1711) Assay; catalogue N/A
T1 sequence (Q9BYW2 1434-1711): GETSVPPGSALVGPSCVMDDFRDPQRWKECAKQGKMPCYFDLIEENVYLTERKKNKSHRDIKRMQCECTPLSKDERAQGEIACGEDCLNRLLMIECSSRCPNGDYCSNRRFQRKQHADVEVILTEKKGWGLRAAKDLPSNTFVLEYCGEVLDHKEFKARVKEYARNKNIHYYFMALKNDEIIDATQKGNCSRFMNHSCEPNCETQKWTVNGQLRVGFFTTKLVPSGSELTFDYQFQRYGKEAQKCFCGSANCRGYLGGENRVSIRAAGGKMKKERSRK
Test: SETD2 (1434-1711) assay
Assay type: biochemical
Details: read-out: SETD2 (1434-1711)

IC50 [µM] | Compound
0.2 | Cc1ccc(F)c2cc(C(=O)Nc3cccc(N4C5CCC4CN(C)C5)c3)[nH]c12 [compound 349]
0.5 | Cc1ccc(F)c2cc(C(=O)NC3C(=O)N(C)CCc4ccccc43)[nH]c12 (stereo not shown) [compound 390]
10.9 | Cc1c(CN2CCOCC2)cccc1NC(=O)c1cc2cccc(C)c2[nH]1 [compound 624]
11 | Cc1cccc2cc(C(=O)N[C@H]3C[C@@H]4CC[C@H]3CN4C(=O)CCCN)[nH]c12 [compound 625]
12.5 | Cc1cccc2cc(C(=O)NC3CCCN(c4ncccn4)C3)[nH]c12 (stereo not shown) [compound 626]
13.2 | Cc1cccnc1C(CN(C)C)NC(=O)c1cc2cccc(C)c2[nH]1 (stereo not shown) [compound 627]
13.3 | CCOC(=O)N1CCC(NC(=O)c2cc3cccc(C)c3[nH]2)CC1 [compound 628]
14.5 | Cc1cccc2cc(C(=O)N[C@H]3CC[C@](C)(NC(=O)CCN)CC3)[nH]c12 [compound 629]
14.6 | CCOC(=O)C(CC1CCC1)NC(=O)c1cc2cccc(C)c2[nH]1 (stereo not shown) [compound 630]
15.3 | Cc1cccc2cc(C(=O)N[C@H]3C[C@H]4CC[C@@H]3CN4C(=O)CCN)[nH]c12 [compound 631]
15.6 | Cc1cccc2cc(C(=O)Nc3ccncc3)[nH]c12 [compound 632]
16.2 | Cc1cccc2cc(C(=O)Nc3cccc(CN4CCOCC4)n3)[nH]c12 [compound 633]
16.3 | COC(=O)C[C@@H](NC(=O)c1cc2cccc(C)c2[nH]1)c1cccc(Cl)c1 [compound 634]
16.5 | Cc1cccc2cc(C(=O)NCCc3ccccc3-c3ccccc3CN)[nH]c12 [compound 635]
17.5 | Cc1cccc2cc(C(=O)NC(c3ccccn3)c3ccccn3)[nH]c12 [compound 637]
18.1 | Cc1cccc2cc(C(=O)NCc3ccccc3N(C)C)[nH]c12 [compound 638]

IC50 [µM] | Compound
18.5 | Cc1cccc2cc(C(=O)NC3CCN(C(=O)CCCN)CC3)[nH]c12 [compound 639]
18.5 | Cc1cccc2cc(C(=O)NC3CC4CCC(C3)C4NC(=O)CCN)[nH]c12 (stereo not shown) [compound 640]
18.5 | Cc1cccc2cc(C(=O)N[C@H]3CC[C@@](C)(NC(=O)CCN)CC3)[nH]c12 [compound 641]
18.6 | Cc1cccc2cc(C(=O)NC(c3cccc(F)c3)C(F)(F)F)[nH]c12 (stereo not shown) [compound 642]
18.6 | Cc1cccc2cc(C(=O)NC3(c4cccnc4)CC3)[nH]c12 [compound 643]
19.5 | Cc1ccc(C)c2[nH]c(C(=O)N[C@H]3CC[C@H](NC(=O)CCN)CC3)cc12 [compound 644]
19.9 | Cc1cccc2cc(C(=O)N(C)[C@H]3CC[C@H](NC(=O)CCN)CC3)[nH]c12 [compound 645]
20.3 | Cc1cccc2cc(C(=O)NC3CCCN(S(=O)(=O)CCCN)C3)[nH]c12 (stereo not shown) [compound 646]
22.3 | COC(=O)CC(NC(=O)c1cc2cccc(C)c2[nH]1)c1ccco1 (stereo not shown) [compound 648]
22.3 | COC(=O)CC(NC(=O)c1cc2cccc(C)c2[nH]1)c1ccsc1 (stereo not shown) [compound 649]
> 23 | COC(=O)CC(NC(=O)c1cc2cccc(C)c2[nH]1)c1cccs1 (stereo not shown) [compound 650]
24.8 | Cc1cccc2cc(C(=O)NC(C)c3ccc(-n4cccn4)cc3)[nH]c12 (stereo not shown) [compound 652]
> 25 | Cc1cccc2cc(C(=O)NCCc3ccc(Cl)cc3N3CCOCC3)[nH]c12 [compound 653]
25.1 | Cc1cccc2cc(C(=O)NC3C[C@@H]4CC[C@H]3C4)[nH]c12 (stereo partly shown) [compound 654]
25.1 | Cc1c(C(=O)N[C@H]2CC[C@H](NC(=O)CCN)CC2)[nH]c2c(C)cccc12 [compound 655]
26.8 | COC(=O)C[C@@H](NC(=O)c1cc2cccc(C)c2[nH]1)c1cccnc1 [compound 658]

Compound | IC50 [µM]
Cc1cccc2cc(C(=O)NCc3ccccc3N3CCNCC3)[nH]c12 [compound 636] | 16.8
Cc1cccc2cc(C(=O)N[C@@H]3C[C@@H]4CC[C@H]3CN4C(=O)CCCN)[nH]c12 [compound 657] | 25.7
